# Counter-ions that a name gives are not always drawn.
# Target: T1, human H4 receptor (Homo sapiens, UniProt Q9H3N8)
# T1 construct: expressed in transfected cells
# Experiment: Binding Assay on Recombinant Human Histamine H4 Receptor
# Settings: Table 1; [3H] histamine competition binding, membranes of SK-N-MC cells transfected with human H4 receptor; average of results
# Experimental: Binding Assay on Recombinant Human Histamine H4 Receptor.
# Cell pellets from SK-N-MC cells stably or transiently transfected with human H4 receptor were used for the binding assays. Cell pellets were homogenized in 50 mM Tris/5 mM EDTA buffer and supernatants from an 800g spin were collected and recentrifuged at 30,000g for 30 min. Pellets were rehomogenized in 50 mM Tris/5 mM EDTA buffer. […] Compounds were tested in free base, hydrochloride salt, or trifluoroacetic acid form. Nonspecific binding was defined with 100 μM cold histamine. […] Membranes were harvested by rapid filtration using the 96 well Brandel system or a cell harvester using a Whatman GF/C filter or filter plates treated with 0.5% polyethylenimine (PEI), and washed 4 times with ice-cold 50 mM Tris/5 mM EDTA buffer. Filters were then dried, mixed with scintillant and radioactive counts were determined. […] Data marked with an asterisk (*) were obtained by the cell harvester method. Where activity is shown as greater than (>) a particular value, the value is the highest concentration tested.
row,SMILES,Ki [nM]
1,"CC(C)c1cc(N2C[C@H]3CCCN[C@H]3C2)nc(N)n1 [Example 20, (R,R)-4-Isopropyl-6-(cis-octahydro-pyrrolo[3,4-b]pyridin-6-yl)-pyrimidin-2-ylamine]",18
2,"CC(C)c1cc(N2CC3CCNC3C2)nc(N)n1 (stereo not drawn) [Example 16, 4-(cis-Hexahydro-pyrrolo[3,4-b]pyrrol-5-yl)-6-isopropyl-pyrimidin-2-ylamine]",65
3,"Cc1nc(N)nc(N2CCN(C)CC2)c1C [Example 26, 4,5-Dimethyl-6-(4-methyl-piperazin-1-yl)-pyrimidin-2-ylamine]",177
4,"CN1CCN(c2nc(N)nc3c2CCC3)CC1 [Example 74, 4-(4-Methyl-piperazin-1-yl)-6,7-dihydro-5H-cyclopentapyrimidin-2-ylamine]",76
5,"Nc1nc(C2CC2)cc(N2CC3CCCNC3C2)n1 (stereo not drawn) [Example 42, 4-Cyclopropyl-6-(cis-octahydro-pyrrolo[3,4-b]pyridin-6-yl)-pyrimidin-2-ylamine]",18
6,"CC(C)c1cc(N2CCC[C@@H](N)C2)nc(N)n1 [Example 9, (R)-4-(3-Amino-piperidin-1-yl)-6-isopropyl-pyrimidin-2-ylamine]",820
7,"Nc1nc(C2CCCC2)cc(N2CCNCC2)n1 [Example 1, 4-Cyclopentyl-6-piperazin-1-yl-pyrimidin-2-ylamine]",1
8,"Nc1nc(C2CCOCC2)cc(N2C[C@H]3CCCN[C@H]3C2)n1 [Example 61, (R,R)-4-(Octahydro-pyrrolo[3,4-b]pyridin-6-yl)-6-(tetrahydro-pyran-4-yl)-pyrimidin-2-ylamine]",24
9,"CN[C@@H]1CCN(c2cc(C3CCC3)nc(N)n2)C1 [Example 46, (R)-4-Cyclobutyl-6-(3-methylamino-pyrrolidin-1-yl)-pyrimidin-2-ylamine]",2
10,"Cc1cc(N2CCNCC2)nc(N)n1 [Example 21, 4-Methyl-6-piperazin-1-yl-pyrimidin-2-ylamine]",29
11,"CCc1cc(N2CCN(C)CC2)nc(N)n1 [Example 34, 4-Ethyl-6-(4-methyl-piperazin-1-yl)-pyrimidin-2-ylamine]",6
12,"CN1CCN(c2cc(C3CC3)nc(N)n2)CC1 [Example 40, 4-Cyclopropyl-6-(4-methyl-piperazin-1-yl)-pyrimidin-2-ylamine]",8

# Same assay, conditions: Table 2, data marked with an asterisk (*): obtained by the cell harvester method; [3H] histamine competition binding, SK-N-MC membranes
row,Ki [nM],SMILES
1,22,"CCCCc1nc(N)nc(N2CC(N)C2)c1OC [Example 103, 4-(3-Amino-azetidin-1-yl)-6-butyl-5-methoxy-pyrimidin-2-ylamine]"

# Same assay, conditions: Table 2; [3H] histamine competition binding, membranes of SK-N-MC cells transfected with human H4 receptor; average of results
row,SMILES,Ki [nM]
1,"Nc1nc(C2CCCC2)cc(N2CC3CNCC3C2)n1 (centres unmarked) [Example 87, 4-Cyclopentyl-6-(hexahydro-pyrrolo[3,4-c]pyrrol-2-yl)-pyrimidin-2-ylamine]",328
2,"CN[C@@H]1CCN(c2cc(C3Cc4ccccc4C3)nc(N)n2)C1 [Example 164, (R)-4-Indan-2-yl-6-(3-methylamino-pyrrolidin-1-yl)-pyrimidin-2-ylamine]",4
3,"CC(C)Cc1cc(N2CCNCC2)nc(N)n1 [Example 147, 4-Isobutyl-6-piperazin-1-yl-pyrimidin-2-ylamine]",4
4,"Nc1nc(C2CCCC2)cc(N2CCC3(CCCN3)C2)n1 (single isomer, unassigned) [Example 258, 4-Cyclopentyl-6-(cis-1,7-diaza-spiro[4.4]non-7-yl)-pyrimidin-2-ylamine]",34
5,"Nc1nc(C2CCOCC2)cc(N2CC[C@@H](N)C2)n1 [Example 249, (R)-4-(3-Amino-pyrrolidin-1-yl)-6-(tetrahydro-pyran-4-yl)-pyrimidin-2-ylamine]",87
6,"CN1CCN(c2cc(CCC(F)(F)F)nc(N)n2)CC1 [Example 181, 4-(4-Methyl-piperazin-1-yl)-6-(3,3,3-trifluoro-propyl)-pyrimidin-2-ylamine]",8
7,"Nc1nc(CC2CCCO2)cc(N2CCNCC2)n1 (centres unmarked) [Example 230, 4-piperazin-1-yl-6-(tetrahydro-furan-2-ylmethyl)-pyrimidin-2-ylamine]",25
8,"CCCCc1cc(N2CCNCC2)nc(N)n1 [Example 142, 4-Butyl-6-piperazin-1-yl-pyrimidin-2-ylamine]",3
9,"Nc1nc(C2Cc3ccccc3C2)cc(N2C[C@H]3CNC[C@H]3C2)n1 [Example 173, 4-(cis-Hexahydro-pyrrolo[3,4-c]pyrrol-2-yl)-6-indan-2-yl-pyrimidin-2-ylamine]",2070
10,"CN[C@@H]1CCN(c2cc(C3CC3c3ccccc3)nc(N)n2)C1 (single isomer, unassigned) [Example 255]",34
11,"Nc1nc(C2Cc3ccccc3C2)cc(N2CCNCC2)n1 [Example 165, 4-Indan-2-yl-6-piperazin-1-yl-pyrimidin-2-ylamine]",2
12,"Nc1nc(C2CCCC2)cc(N2CC3NCCOC3C2)n1 (single isomer, unassigned) [Example 88, 4-Cyclopentyl-6-(cis-hexahydro-pyrrolo[3,4-b][1,4]oxazin-6-yl)-pyrimidin-2-ylamine]",520
13,"Nc1nc(Cc2ccc(Cl)cc2)cc(N2C[C@H]3CNC[C@H]3C2)n1 [Example 237, 4-(4-Chloro-benzyl)-6-(cis-hexahydro-pyrrolo[3,4-c]pyrrol-2-yl)-pyrimidin-2-ylamine]",257
14,"CN[C@@H]1CCN(c2nc(N)nc(C3CCCC3)c2OC)C1 [Example 187, (R)-4-Cyclopentyl-5-methoxy-6-(3-methylamino-pyrrolidin-1-yl)-pyrimidin-2-ylamine]",10
15,"CCCCc1cc(N2CCN(C)CC2)nc(N)n1 [Example 136, 4-Butyl-6-(4-methyl-piperazin-1-yl)-pyrimidin-2-ylamine]",1
16,"CCCCc1cc(N2CC3CCCNC3C2)nc(N)n1 (stereo not drawn) [Example 141, 4-Butyl-6-(cis-octahydro-pyrrolo[3,4-b]pyridin-6-yl)-pyrimidin-2-ylamine]",84
17,"CCCCc1nc(N)nc(N2CCNCC2)c1OC [Example 101, 4-Butyl-5-methoxy-6-piperazin-1-yl-pyrimidin-2-ylamine]",30
18,"CC(C)Cc1cc(N2CCN(C)CC2)nc(N)n1 [Example 146, 4-Isobutyl-6-(4-methyl-piperazin-1-yl)-pyrimidin-2-ylamine]",3
19,"CCCCc1nc(N)nc(N2CC[C@H](N)C2)c1OC [Example 105, (S)-4-(3-Amino-pyrrolidin-1-yl)-6-butyl-5-methoxy-pyrimidin-2-ylamine]",103
20,"Nc1nc(C2CCCC2)cc(N2CCC3(CCCN3)C2)n1 (single isomer, unassigned) [Example 257, 4-Cyclopentyl-6-(cis-1,7-diaza-spiro[4.4]non-7-yl)-pyrimidin-2-ylamine]",31
21,"Cc1nc(N)nc(N2CC3CCCNC3C2)c1F (centres unmarked) [Example 200, 5-Fluoro-4-methyl-6-(octahydro-pyrrolo[3,4-b]pyridin-6-yl)-pyrimidin-2-ylamine]",235
22,"CCCCc1nc(N)nc(N2CCCNCC2)c1OC [Example 102, 4-Butyl-6-[1,4]diazepan-1-yl-5-methoxy-pyrimidin-2-ylamine]",181

# Second part, the compound after the results:
row,Ki [nM],SMILES
1,3,"CC(C)Cc1cc(N2CC[C@@H](N)C2)nc(N)n1 [Example 149, (R)-4-(3-Amino-pyrrolidin-1-yl)-6-isobutyl-pyrimidin-2-ylamine]"
2,78,"Nc1nc(Cc2ccccc2)cc(N2CC[C@@H](N)C2)n1 [Example 167, (R)-4-(3-Amino-pyrrolidin-1-yl)-6-benzyl-pyrimidin-2-ylamine]"
3,8,"CN[C@@H]1CCN(c2cc(Cc3ccsc3)nc(N)n2)C1 [Example 208, (R)-4-(3-Methylamino-pyrrolidin-1-yl)-6-thiophen-3-ylmethyl-pyrimidin-2-ylamine]"
4,31,"CCOCc1cc(N2CC[C@@H](NC)C2)nc(N)n1 [Example 241, (R)-Ethoxymethyl-6-(3-methylamino-pyrrolidin-1-yl)-pyrimidin-2-ylamine]"
5,1,"CN[C@@H]1CCN(c2cc(CC(C)C)nc(N)n2)C1 [Example 148, (R)-4-Isobutyl-6-(3-methylamino-pyrrolidin-1-yl)-pyrimidin-2-ylamine]"
6,5,"Nc1nc(C2Cc3ccccc3C2)cc(N2CC[C@@H](N)C2)n1 [Example 162, (R)-4-(3-Amino-pyrrolidin-1-yl)-6-indan-2-yl-pyrimidin-2-ylamine]"
7,12,"Nc1nc(C2CC2c2ccccc2)cc(N2CCNCC2)n1 (stereo not drawn) [Example 156, 4-(trans-2-Phenyl-cyclopropyl)-6-piperazin-1-yl-pyrimidin-2-ylamine]"
8,24,"Nc1nc(C2Cc3ccccc3C2)cc(N2CC(N)C2)n1 [Example 161, 4-(3-Amino-azetidin-1-yl)-6-indan-2-yl-pyrimidin-2-ylamine salt]"
9,1770,"CN(CCN)c1cc(Cc2ccc(Cl)cc2)nc(N)n1 [Example 238, N^4-(2-Amino-ethyl)-6-(4-chloro-benzyl)-N^4-methyl-pyrimidine-2,4-diamine]"
10,242,"COCc1cc(N2CC[C@H](N)C2)nc(N)n1 [Example 118, (S)-4-(3-Amino-pyrrolidin-1-yl)-6-methoxymethyl-pyrimidin-2-ylamine]"
11,80,"CCCCc1nc(N)nc(NCCN)c1OC [Example 110, N^4-(2-Amino-ethyl)-6-butyl-5-methoxy-pyrimidine-2,4-diamine]"
12,42,"NCCNc1cc(C2CC2c2ccccc2)nc(N)n1 (stereo not drawn) [Example 159, N^4-(2-Amino-ethyl)-6-(trans-2-phenyl-cyclopropyl)-pyrimidine-2,4-diamine]"

# Reference: patent US8716475B2, “2-aminopyrimidine modulators of the histamine H4 receptor” (Janssen Pharmaceutica NV, priority 2007, dated 2014)
